Assay [1] relates to CCRF-CEM. In words: Cytotoxicity against human CCRF-CEM cells incubated for 72 hrs by MTS assay. Format: functional, cell-based. For orientation: Tetrazolium assays rely on reduction of a dye to a coloured formazan, in cell work by metabolically active cells.
The subject of assay [2] is CCRF-CEM. In words: Cytotoxicity against human daunorubicine-resistant CCRF-CEM cells incubated for 72 hrs by MTS assay. Format: functional, cell-based.
For assay [3], the system named is K562. In words: Cytotoxicity against human K562 cells incubated for 72 hrs by MTS assay. The note with it: K562, 72 h. Format: functional, cell-based.
The test system of assay [4] is K562. In words: Cytotoxicity against human paclitaxel-resistant K562 cells incubated for 72 hrs by MTS assay. Format: functional, cell-based. The conditions noted are these: K562, 72 h.
The test system of assay [5] is HCT-116. The experiment in a line: Cytotoxicity against human HCT-116 cells incubated for 72 hrs by MTS assay. The note with it: HCT-116, 72 h. Format: functional, cell-based.
Assay [6] deals with HCT-116. In words: Cytotoxicity against p53-deficient human HCT-116 cells incubated for 72 hrs by MTS assay. The note with it: HCT-116, 72 h. Format: functional, cell-based.
For the next assay, the system named is A549. The experiment in a line: Cytotoxicity against human A549 cells incubated for 72 hrs by MTS assay. The note with it: A549, 72 h. Format: functional, cell-based.
The test system of a further assay is BJ. The experiment in a line: Cytotoxicity against human BJ cells incubated for 72 hrs by MTS assay. Format: cell-based.
In assay [7] the test system is CCRF-CEM. The experiment in a line: Cell cycle arrest in human CCRF-CEM cells assessed as accumulation at sub-G1 phase at IC50 measured after 24 hrs by propidium iodide staining based flow cytometry (reference value: 2%). Format: functional.
Assay [8] deals with CCRF-CEM. The experiment in a line: Cell cycle arrest in human CCRF-CEM cells assessed as accumulation at sub-G1 phase at 5 times IC50 measured after 24 hrs by propidium iodide staining based flow cytometry (reference value: 2%). Format: functional. Background: In flow cytometry, cells or beads pass a laser one at a time.
Assay [9] has as its system CCRF-CEM. In words: Cell cycle arrest in human CCRF-CEM cells assessed as accumulation at G0/G1 phase at IC50 measured after 24 hrs by propidium iodide staining based flow cytometry (reference value: 35.2%). Format: functional.
The test system of assay [10] is CCRF-CEM. The experiment in a line: Cell cycle arrest in human CCRF-CEM cells assessed as accumulation at G0/G1 phase at 5 times IC50 measured after 24 hrs by propidium iodide staining based flow cytometry (reference value: 35.2%). Format: functional.
Assay [11] deals with CCRF-CEM. The experiment in a line: Cell cycle arrest in human CCRF-CEM cells assessed as accumulation at S phase at IC50 measured after 24 hrs by propidium iodide staining based flow cytometry (reference value: 42.2%). Format: functional.
For assay [12], the system named is CCRF-CEM. The experiment in a line: Cell cycle arrest in human CCRF-CEM cells assessed as accumulation at S phase at 5 times IC50 measured after 24 hrs by propidium iodide staining based flow cytometry (reference value: 42.2%). Format: functional.
The test system of assay [13] is CCRF-CEM. The experiment in a line: Cell cycle arrest in human CCRF-CEM cells assessed as accumulation at G2/M phase at IC50 measured after 24 hrs by propidium iodide staining based flow cytometry (reference value: 22.6%). Format: functional.
Assay [14] relates to CCRF-CEM. The experiment in a line: Cell cycle arrest in human CCRF-CEM cells assessed as accumulation at G2/M phase at 5 times IC50 measured after 24 hrs by propidium iodide staining based flow cytometry (reference value: 22.6%). Format: functional.
For assay [15], the system named is CCRF-CEM. The experiment in a line: Cell cycle arrest in human CCRF-CEM cells assessed as phosphorylation of histone H3 at Ser10 at IC50 measured after 24 hrs by propidium iodide staining based flow cytometry (reference value: 2.0%). Format: functional.
In assay [16] the test system is CCRF-CEM. The experiment in a line: Cell cycle arrest in human CCRF-CEM cells assessed as phosphorylation of histone H3 at Ser10 at 5 times IC50 measured after 24 hrs by propidium iodide staining based flow cytometry (reference value: 2.0%). Format: functional.
Assay [17] concerns CCRF-CEM. In words: Cell cycle arrest in human CCRF-CEM cells assessed as BrdU incorporation at IC50 measured after 24 hrs by propidium iodide/immunostaining based flow cytometry (reference value: 60.0%). Format: functional.
Assay [18] deals with CCRF-CEM. In words: Cell cycle arrest in human CCRF-CEM cells assessed as BrdU incorporation at 5 times IC50 measured after 24 hrs by propidium iodide/immunostaining based flow cytometry (reference value: 60.0%). Format: functional. (In general: Dividing cells build labelled thymidine or BrdU into new DNA.)
The subject of assay [19] is CCRF-CEM. In words: Cell cycle arrest in human CCRF-CEM cells assessed as BrU incorporation at IC50 measured after 24 hrs by propidium iodide/immunostaining based flow cytometry (reference value: 52.2%). Format: functional.
The subject of assay [20] is CCRF-CEM. In words: Cell cycle arrest in human CCRF-CEM cells assessed as BrU incorporation at 5 times IC50 measured after 24 hrs by propidium iodide/immunostaining based flow cytometry (reference value: 52.2%). Format: functional.
The next assay is filed under the species Sus scrofa. The experiment in a line: Inhibition of porcine brain tubulin polymerization assessed as Vmax of polymerization at 10 umol/L measured at 60 secs interval for 30 mins by turbidometric method. The conditions noted are these: dose 10.0 µmol/L.

Structures are written as SMILES.

Broadly, the IC50 is the midpoint of a concentration-inhibition curve. A lower IC50 goes with greater potency.

`O=c1c(O)c(-c2ccccc2)[nH]c2cc(F)ccc12`: the IC50 is 17.8 µM with CCRF-CEM [1]; 17.5 µM in the assay on CCRF-CEM [2]; 21.7 µM in the assay with K562 [3]; 21.4 µM in the assay with K562 [4]; over 50 µM in the assay with HCT-116 [5]; 43.9 µM in the assay with HCT-116 [6]. Besides, the concentration for half-maximal inhibition (IC50) was 19.5 µM with A549 and over 50 µM in the assay on BJ.
In the case of `O=c1c(O)c(-c2ccccc2)[nH]c2cc(F)cc(F)c12`, the IC50 in the assay on CCRF-CEM [1] is 4.6 µM; in the assay with CCRF-CEM [2], 18 µM; in the assay on K562 [3], 21.6 µM; in the assay on K562 [4], 19.8 µM; in the assay with HCT-116 [5] it was 22.5 µM; in the assay with HCT-116 [6] it was over 50 µM. Further, the half-inhibitory concentration (IC50) in the assay with A549 is 19.6 µM; in the assay with BJ, over 50 µM. For the same compound, the Activity with CCRF-CEM [7] is on record as 0.8%; in the assay with CCRF-CEM [8] it was 1.4%; with CCRF-CEM [9] it was 33%; in the assay with CCRF-CEM [10], 26.6%; in the assay on CCRF-CEM [11], 48.4%; with CCRF-CEM [12], 51.6%. Also, the Activity turned out to be 18.6% with CCRF-CEM [13]; 21.8% with CCRF-CEM [14]; 2.1% with CCRF-CEM [15]; 0.9% in the assay on CCRF-CEM [16]; 65.7% in the assay with CCRF-CEM [17]; 79% with CCRF-CEM [18]. Also, the Activity with CCRF-CEM [19] is given as 57.2%; in the assay on CCRF-CEM [20] it was 53.7%.
In the case of `O=c1c(O)c(-c2ccccc2)[nH]c2ccc(F)cc12`, the half-inhibitory concentration (IC50) is 17.8 µM in the assay with CCRF-CEM [1]; 15.3 µM in the assay with CCRF-CEM [2]; 18.8 µM with K562 [3]; 20.3 µM in the assay on K562 [4]; over 50 µM in the assay on HCT-116 [5]; 17.4 µM in the assay on HCT-116 [6]. Further, the IC50 in the assay on A549 was 18.8 µM; in the assay on BJ, over 50 µM.
As to `O=c1c(O)c(-c2ccc(F)cc2)[nH]c2ccccc12`, the IC50 was found to be 2.4 µM with CCRF-CEM [1]; 9.4 µM in the assay on CCRF-CEM [2]; 40.4 µM in the assay on K562 [3]; 8.6 µM in the assay with K562 [4]; 34 µM in the assay with HCT-116 [5]; 36.5 µM in the assay with HCT-116 [6]. Also, the IC50 in the assay with A549 is 18.1 µM; in the assay with BJ, over 50 µM. In addition, the Activity with CCRF-CEM [7] is listed as 4.4%; in the assay on CCRF-CEM [8], 8.4%; with CCRF-CEM [9], 39.6%; in the assay on CCRF-CEM [10], 45.9%; in the assay on CCRF-CEM [11], 24.2%; with CCRF-CEM [12] it was 13.5%. Also, the Activity with CCRF-CEM [13] is 36.2%; with CCRF-CEM [14], 40.7%; with CCRF-CEM [15], 1.5%; in the assay with CCRF-CEM [16], 1.6%; in the assay on CCRF-CEM [17] it was 35.5%; in the assay on CCRF-CEM [18] it was 25.2%. Moreover, the Activity was found to be 31.3% in the assay on CCRF-CEM [19] and 32.1% in the assay on CCRF-CEM [20].
`O=c1c(O)c(-c2ccccc2F)[nH]c2ccccc12`: the IC50 with CCRF-CEM [1] was 17.4 µM; in the assay with CCRF-CEM [2], 50 µM; with K562 [3] it was 33.7 µM; in the assay with K562 [4], 22.2 µM; in the assay with HCT-116 [5] it was 35.1 µM; in the assay with HCT-116 [6] it was 34.2 µM. For the same compound, the IC50 with A549 is 31.7 µM; in the assay with BJ, over 50 µM.
Turning to `COC(=O)Nc1nc2cc(C(=O)c3cccs3)ccc2[nH]1`, the Vmax (milli optical density/minute) in the assay filed under Sus scrofa worked out at 7.6.
As to `O=c1c(O)c(-c2ccccc2)[nH]c2cc(F)c(N3CCOCC3)cc12`, the IC50 in the assay on CCRF-CEM [1] is over 50 µM; with CCRF-CEM [2] it was 11.7 µM; in the assay on K562 [3], 19.3 µM; in the assay with K562 [4] it was 12.8 µM; in the assay on HCT-116 [5], 5.2 µM; in the assay with HCT-116 [6] it was over 50 µM. The IC50 is 13.6 µM in the assay with A549 and over 50 µM in the assay with BJ.
As to `O=c1c(O)c(-c2ccccc2)[nH]c2cc(F)c(F)cc12`, the IC50 in the assay on CCRF-CEM [1] was 12.6 µM; with CCRF-CEM [2] it was 12.8 µM; in the assay with K562 [3] it was 18.9 µM; with K562 [4], 17.4 µM; in the assay on HCT-116 [5], 15.1 µM; in the assay with HCT-116 [6] it was 22.6 µM. The IC50 in the assay on A549 is 18.2 µM; in the assay on BJ, over 50 µM.
With `O=c1c(O)c(-c2ccccc2)[nH]c2c(F)c(F)c(F)c(F)c12`, the IC50 was 19.5 µM in the assay with CCRF-CEM [1]; over 50 µM in the assay on CCRF-CEM [2]; over 50 µM with K562 [3]; 16.8 µM in the assay on K562 [4]; over 50 µM in the assay on HCT-116 [5]; over 50 µM in the assay on HCT-116 [6]. The IC50 with A549 and in the assay with BJ was over 50 µM each time.
Take `CC(=O)O[C@H]1C(=O)[C@@]2(C)[C@H]([C@H](OC(=O)c3ccccc3)[C@]3(O)C[C@H](OC(=O)[C@H](O)[C@@H](NC(=O)c4ccccc4)c4ccccc4)C(C)=C1C3(C)C)[C@]1(OC(C)=O)CO[C@@H]1C[C@@H]2O`: the Vmax (milli optical density/minute) in the assay filed under Sus scrofa stood at 63.3.
For the compound `O=c1c(O)c(-c2ccccc2)[nH]c2cc(F)c(N3CCN(CCOCCO)CC3)cc12`, the IC50 in the assay on CCRF-CEM [1] is 19.8 µM; in the assay on CCRF-CEM [2] it was over 50 µM; with K562 [3], 47.7 µM; with K562 [4], over 50 µM; with HCT-116 [5] it was over 50 µM; in the assay on HCT-116 [6], 29.4 µM. Besides, the half-inhibitory concentration (IC50) in the assay on A549 and in the assay on BJ was over 50 µM in each case.
For `O=c1c(O)c(-c2cccc(F)c2)[nH]c2ccccc12`, the half-maximal inhibitory concentration (IC50) is 7.3 µM with CCRF-CEM [1]; 50 µM in the assay with CCRF-CEM [2]; 12.9 µM in the assay with K562 [3]; 7.5 µM with K562 [4]; 27.1 µM with HCT-116 [5]; 50 µM in the assay with HCT-116 [6]. Besides, the IC50 in the assay on A549 was 13.1 µM; in the assay on BJ, over 50 µM. Further, the Activity in the assay on CCRF-CEM [7] is on record as 5.4%; in the assay on CCRF-CEM [8] it was 15.9%; in the assay on CCRF-CEM [9] it was 34.9%; with CCRF-CEM [10] it was 52.6%; in the assay on CCRF-CEM [11], 32.6%; in the assay with CCRF-CEM [12] it was 19.9%. Further, the Activity in the assay with CCRF-CEM [13] turned out to be 32.6%; with CCRF-CEM [14], 27.5%; with CCRF-CEM [15], 1%; with CCRF-CEM [16] it was 0.2%; with CCRF-CEM [17] it was 26.7%; with CCRF-CEM [18], 22.4%. Moreover, the results for the Activity with CCRF-CEM [19] and in the assay with CCRF-CEM [20] were 33.7% and 3.8%, respectively.

The values above are taken from ChEMBL document CHEMBL4680214, “Fluorinated derivatives of 2-phenyl-3-hydroxy-4(1H)-quinolinone as tubulin polymerization inhibitors” (Eur J Med Chem, 2020).
